The target in the assay is T1, DPP-IV (Homo sapiens, UniProt P27487).
T1 construct: Soluble human DPP-IV lacking the transmembrane anchor (Gly31-Pro766) was expressed in a recombinant YEAST-strain; Pre-Pro-alpha-mating factor leader (secretion fusion) (N, cleaved yes); made in house
The assay can be described thus: Inhibition of DPP-IV peptidase activity, continuous fluorimetric assay (Gly-Pro-AMC cleavage). Type of assay: biochemical, human and porcine. The procedure: Inhibition of DPP-IV peptidase activity was monitored with a continuous fluorimetric assay. This assay is based on the cleavage of the substrate Gly-Pro-AMC (Bachem) by DPP-IV, releasing free AMC. The assay is carried out in 96-well microtiterplates. In a total volume of 100 μL, compounds are preincubated with 50 pM DPP-IV employing a buffer containing 10 mM Hepes, 150 mM NaCl, 0.005% Tween 20 (pH 7.4). […] The final concentration of DMSO is 1%. The inhibitory potential of the compounds were determined.
Soluble human DPP-IV lacking the transmembrane anchor (Gly31-Pro766) was expressed in a recombinant YEAST-strain as Pre-Pro-alpha-mating fusion. The secreted product (rhuDPP-IV-Gly31-Pro766) was purified from fermentation broth (>90% purity).

[1] abbreviates: inhibition of DPP-IV peptidase activity, 50 pM DPP-IV, 16 μM Gly-Pro-AMC, pH 7.4, 25° C., values grouped in 3 classes, read-out: IC50.

The text below walks through data of patent US20070197522A1, “Dpp-iv inhibitors” (priority 2004, published 2007).

Where a name gives a salt, the structure may show the parent alone. Read-outs that look alike come from different tables or passages of the source.

T1 sequence (P27487 31-766): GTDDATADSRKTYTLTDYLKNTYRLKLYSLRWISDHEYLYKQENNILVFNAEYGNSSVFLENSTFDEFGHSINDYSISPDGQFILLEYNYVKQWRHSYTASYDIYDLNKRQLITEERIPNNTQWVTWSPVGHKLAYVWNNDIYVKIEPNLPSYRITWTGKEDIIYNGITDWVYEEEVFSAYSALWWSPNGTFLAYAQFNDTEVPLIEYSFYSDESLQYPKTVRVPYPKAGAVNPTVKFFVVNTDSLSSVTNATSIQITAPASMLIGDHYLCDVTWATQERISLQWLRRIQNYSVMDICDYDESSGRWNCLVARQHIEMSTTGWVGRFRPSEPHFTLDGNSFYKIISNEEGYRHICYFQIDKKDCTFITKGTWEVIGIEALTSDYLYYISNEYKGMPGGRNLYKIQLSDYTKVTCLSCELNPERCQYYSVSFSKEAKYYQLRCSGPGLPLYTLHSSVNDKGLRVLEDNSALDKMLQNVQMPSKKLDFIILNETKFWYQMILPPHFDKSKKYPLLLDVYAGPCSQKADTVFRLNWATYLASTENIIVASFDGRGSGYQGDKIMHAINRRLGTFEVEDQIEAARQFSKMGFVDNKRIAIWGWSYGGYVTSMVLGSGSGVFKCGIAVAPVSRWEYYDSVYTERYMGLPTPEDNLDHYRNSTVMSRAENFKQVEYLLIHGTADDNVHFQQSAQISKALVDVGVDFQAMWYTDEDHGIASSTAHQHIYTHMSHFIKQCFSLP

With `NC(CC(=O)NCc1ccc(Oc2ccccc2)cc1)Cc1ccccc1F` (stereo not drawn) [Example 76], under setting [1], the IC50 lay within 101 to 1000 nM.

As for `N[C@@H](CC(=O)NCc1cc(F)c(F)c(F)c1)Cc1ccccc1F` [Example 65], the IC50 under setting [1] was 101 to 1000 nM.

For the compound `N[C@@H](CC(=O)NCCc1ccc(Cl)cc1)Cc1ccccc1F` [Example 95], the IC50 under setting [1] is 101 to 1000 nM.

Take `N[C@@H](CC(=O)NCc1ccc(S(N)(=O)=O)cc1)Cc1ccccc1F` [Example 147]: the IC50 under setting [1] was in the range of 101 to 1000 nM.

`N[C@@H](CC(=O)NCc1cnn(-c2ccccc2)c1)Cc1ccccc1F` [Example 163]: under setting [1], the IC50 lay in the range of 101 to 1000 nM.

With `N[C@@H](CC(=O)NCc1ccccc1C(F)(F)F)Cc1ccccc1F` [Example 69], the IC50 under setting [1] fell in the range of 1000 to 2000 nM.

`COc1ccc(Oc2cccc(F)c2CNC(=O)C[C@H](N)Cc2ccccc2F)cc1` [Example 142]: the IC50 under setting [1] lay within 101 to 1000 nM.

With `N[C@@H](CC(=O)NCCc1ccccc1F)Cc1ccccc1F` [Example 113], the IC50 under setting [1] is 101 to 1000 nM.

Take `Cc1ccc(CNC(=O)C[C@H](N)Cc2ccccc2F)cc1` [Example 115]: under setting [1], the IC50 is 101 to 1000 nM.

With `COc1ccc(CCNC(=O)C[C@H](N)Cc2ccccc2F)cc1` [Example 98], under setting [1], the 50% inhibitory concentration (IC50) lay in the range of 1000 to 2000 nM.

With `CN(Cc1ccccc1)C(=O)C[C@H](N)Cc1ccccc1F` [Example 121], under setting [1], the IC50 lay within 101 to 1000 nM.

For the compound `CN(C(=O)C[C@H](N)Cc1ccccc1F)C(c1ccccc1)c1ccccc1` [Example 105], the IC50 under setting [1] was in the range of 101 to 1000 nM.

Regarding `N[C@@H](CC(=O)NCc1cccc(Oc2ccccc2)c1)Cc1ccccc1F` [Example 77], under setting [1], the IC50 is 101 to 1000 nM.

Turning to `N[C@@H](CC(=O)NCc1ccccc1)Cc1ccccc1F` [Example 41], the IC50 under setting [1] is 1000 to 2000 nM.

For `N[C@@H](CC(=O)NCc1cccc(C(=O)NC2CC2)c1)Cc1ccccc1F` [Example 32, 3-{[(3R)-3-Amino-4-(2-fluoro-phenyl)-butyrylamino]-methyl}-N-cyclopropyl-benzamide. Trifluoroacetate Salt], under setting [1], the IC50 lay in the range of 101 to 1000 nM.

On to `COc1cccc(C(C)NC(=O)CC(N)Cc2ccccc2F)c1` (stereo not drawn) [Example 102], for which the IC50 under setting [1] fell in the range of 1000 to 2000 nM.

`CN(Cc1cccnc1)C(=O)C[C@H](N)Cc1ccccc1F` [Example 122]: under setting [1], the IC50 lay in the range of 101 to 1000 nM.

As to `N[C@@H](CC(=O)N(CCN1CCOCC1)Cc1cccnc1)Cc1ccccc1F` [Example 155], the IC50 under setting [1] fell in the range of 101 to 1000 nM.

`N[C@@H](CC(=O)NCc1ccc(Cl)cc1)Cc1ccccc1F` [Example 54]: the IC50 under setting [1] lay within 101 to 1000 nM.

As for `N[C@@H](CC(=O)NCc1cc(Cl)ccc1Cl)Cc1ccccc1F` [Example 51], the IC50 under setting [1] fell in the range of 101 to 1000 nM.

Regarding `CN(C)CCNC(=O)C[C@H](N)Cc1ccccc1F` [Example 39], the 50% inhibitory concentration (IC50) under setting [1] was in the range of 101 to 1000 nM.

For `CSc1ccccc1CN(C)C(=O)C[C@H](N)Cc1ccccc1F` [Example 38, 3-Amino-4-(2-fluoro-phenyl)-N-methyl-N-(2-methylsulfanyl-benzyl)-butyramide Hydrochloride], the IC50 under setting [1] was in the range of 101 to 1000 nM.

With `N[C@@H](CC(=O)NCCc1ccc(F)cc1)Cc1ccccc1F` [Example 110], the IC50 under setting [1] lay within 1000 to 2000 nM.

With `CN1CCN(CC(c2ccccc2)N(C)C(=O)C[C@H](N)Cc2ccccc2F)CC1` (stereo partly drawn) [Example 160], the IC50 under setting [1] lay within 1000 to 2000 nM.

For `CN(CC(c1ccccc1Cl)N1CCCC1)C(=O)C[C@H](N)Cc1ccccc1F` (stereo partly drawn) [Example 178], the IC50 under setting [1] was less than 100 nM.

Turning to `CN(Cc1cccc(C(F)(F)F)c1)C(=O)C[C@H](N)Cc1ccccc1F` [Example 124], the IC50 under setting [1] was in the range of 101 to 1000 nM.

Regarding `N[C@@H](CC(=O)NCc1ccccc1-c1ccccc1)Cc1ccccc1F` [Example 75], under setting [1], the IC50 lay in the range of 101 to 1000 nM.

Turning to `CN(Cc1cccc(C(F)(F)F)c1)S(=O)(=O)C[C@H](N)Cc1ccccc1F` [Example 193, (R)-2-Amino-3-(2-fluoro-phenyl)-propane-1-sulphonic acid methyl-(3-trifluoromethyl-benzyl)-amide], the IC50 under setting [1] is 101 to 1000 nM.

In the case of `N[C@@H](CC(=O)NCCN1CCCCC1)Cc1ccccc1F` [Example 82], the IC50 under setting [1] lay in the range of 101 to 1000 nM.

Consider `NC(CC(=O)NCC(c1ccc(Cl)cc1)N1CCOCC1)Cc1ccccc1F` (stereo not drawn) [Example 158], for which, under setting [1], the IC50 lay within 101 to 1000 nM.

For `N[C@@H](CC(=O)NCCc1ccc(S(N)(=O)=O)cc1)Cc1ccccc1F` [Example 104], the half-inhibitory concentration (IC50) under setting [1] fell in the range of 101 to 1000 nM.

For `N[C@@H](CC(=O)NCc1cc(F)cc(F)c1)Cc1ccccc1F` [Example 46], under setting [1], the IC50 fell in the range of 101 to 1000 nM.

For the compound `CN(Cc1cn2ccccc2n1)C(=O)C[C@H](N)Cc1ccccc1F` [Example 175], the IC50 under setting [1] was in the range of 1000 to 2000 nM.

On to `N[C@@H](CC(=O)NCC(c1cccc(Cl)c1)N1CCOCC1)Cc1ccccc1F` (stereo partly drawn) [Example 157], for which, under setting [1], the IC50 was in the range of 101 to 1000 nM.

As for `N[C@@H](CC(=O)NCC(c1ccccc1Cl)N1CCOCC1)Cc1ccccc1F` (stereo partly drawn) [Example 156], the concentration for half-maximal inhibition (IC50) under setting [1] lay within 101 to 1000 nM.

Consider `N[C@@H](CC(=O)NCCc1ccccc1Cl)Cc1ccccc1F` [Example 96], for which, under setting [1], the IC50 was 101 to 1000 nM.

On to `Cc1ccc(C(C)NC(=O)CC(N)Cc2ccccc2F)cc1` (stereo not drawn) [Example 89], for which, under setting [1], the IC50 fell in the range of 101 to 1000 nM.

As to `COc1ccccc1CCNC(=O)C[C@H](N)Cc1ccccc1F` [Example 97], the IC50 under setting [1] lay in the range of 1000 to 2000 nM.

`CC(C)[C@H](NC(=O)C[C@H](N)Cc1cc(F)c(F)cc1F)c1nc(C2CC2)no1` [Example 29, (R)-3-Amino-N—[(S)-1-(3-cyclopropyl-[1,2,4]oxadiazol-5-yl)-2-methyl-propyl]-4-(2,4,5-trifluoro-phenyl)-butyramide. Formic Acid Salt]: under setting [1], the IC50 was less than 100 nM.

With `N[C@@H](CC(=O)NCc1ccccc1N1CCCCC1)Cc1ccccc1F` [Example 154], the IC50 under setting [1] fell in the range of 101 to 1000 nM.

For the compound `N[C@@H](CC(=O)NCc1cccc(F)c1)Cc1ccccc1F` [Example 118], the IC50 under setting [1] lay in the range of 101 to 1000 nM.

In the case of `Cc1nn(-c2ccccc2)c(C)c1CNC(=O)C[C@H](N)Cc1ccccc1F` [Example 140], the IC50 under setting [1] was in the range of 101 to 1000 nM.

As for `CCOc1ccccc1CCNC(=O)C[C@H](N)Cc1ccccc1F` [Example 130], the IC50 under setting [1] lay in the range of 101 to 1000 nM.

Regarding `CN(C)C(CNC(=O)C[C@H](N)Cc1ccccc1F)c1ccccc1Cl` (single isomer, unassigned) [Example 84], under setting [1], the IC50 lay in the range of 101 to 1000 nM.

Take `N#Cc1ccc(CNC(=O)C[C@H](N)Cc2ccccc2F)cc1` [Example 129]: under setting [1], the IC50 was in the range of 101 to 1000 nM.

As for `N[C@@H](CC(=O)NC1Cc2ccccc2C1)Cc1ccccc1F` [Example 55], the IC50 under setting [1] lay within 101 to 1000 nM.

`N[C@@H](CC(=O)NCCc1c(F)cccc1Cl)Cc1ccccc1F` [Example 114]: the IC50 under setting [1] fell in the range of 101 to 1000 nM.

On to `N[C@@H](CC(=O)NC(Cc1ccccc1)c1ccccc1)Cc1ccccc1F` (single isomer, unassigned) [Example 74], for which the IC50 under setting [1] lay within 101 to 1000 nM.

As for `NC(=O)c1cccc(CNC(=O)C[C@H](N)Cc2ccccc2F)c1` [Example 30, 3-{[(3R)-3-Amino-4-(2-fluoro-phenyl)-butyrylamino]-methyl}-benzamide Trifluoroacetate Salt], the IC50 under setting [1] lay in the range of 101 to 1000 nM.

In the case of `N[C@@H](CC(=O)NCc1cccc(C(=O)Nc2ccccn2)c1)Cc1ccccc1F` [Example 34], the IC50 under setting [1] fell in the range of 101 to 1000 nM.

As for `N[C@@H](CC(=O)NCc1cccc(OC(F)F)c1)Cc1ccccc1F` [Example 139], the IC50 under setting [1] lay in the range of 101 to 1000 nM.

Take `Cc1onc(-c2ccccc2)c1CNC(=O)C[C@H](N)Cc1ccccc1F` [Example 149]: the IC50 under setting [1] lay within 101 to 1000 nM.

Consider `N[C@@H](CC(=O)NCCc1ccccc1)Cc1ccccc1F` [Example 50], for which the IC50 under setting [1] lay in the range of 101 to 1000 nM.

Turning to `CN(Cc1ccc(F)cc1)C(=O)C[C@H](N)Cc1ccccc1F` [Example 125], the half-maximal inhibitory concentration (IC50) under setting [1] was 101 to 1000 nM.

As to `N[C@@H](CC(=O)NCC1OCCc2ccccc21)Cc1ccccc1F` (single isomer, unassigned) [Example 67], the IC50 under setting [1] lay in the range of 101 to 1000 nM.

For `N[C@@H](CC(=O)NC(CN1CCCC1)c1ccccc1Cl)Cc1ccccc1F` (single isomer, unassigned) [Example 90], under setting [1], the concentration for half-maximal inhibition (IC50) is less than 100 nM.

For `CN(C)C(CNC(=O)C[C@H](N)Cc1ccccc1F)c1ccccc1` (single isomer, unassigned) [Example 85], under setting [1], the IC50 lay in the range of 101 to 1000 nM.

In the case of `N[C@@H](CC(=O)NCc1cc(Cl)ccc1-n1cncn1)Cc1ccccc1F` [Example 164], the IC50 under setting [1] was in the range of 101 to 1000 nM.

In the case of `N[C@@H](CC(=O)N[C@@H](CN1CCCCC1)c1ccccc1)Cc1ccccc1F` [Example 173], under setting [1], the IC50 lay within 101 to 1000 nM.

As to `Cn1c(CNC(=O)C[C@H](N)Cc2ccccc2F)nc2ccccc21` [Example 146], the IC50 under setting [1] was in the range of 101 to 1000 nM.

Turning to `N[C@@H](CC(=O)NC(CN1CCCCC1)c1ccccc1)Cc1ccccc1F` (single isomer, unassigned) [Example 109], under setting [1], the IC50 is 101 to 1000 nM.

Regarding `N[C@@H](CC(=O)NCc1n[nH]c2ccc(Cl)cc12)Cc1ccccc1F` [Example 161], the IC50 (IC50) is 101 to 1000 nM.

With `NC(CC(=O)NCC(c1ccccc1)N1CCOCC1)Cc1ccccc1F` (stereo not drawn) [Example 167], under setting [1], the IC50 fell in the range of 101 to 1000 nM.
